Laboratory results: article PMC3740496, “Synthesis and biological activities of the respiratory chain inhibitor aurachin D and new ring versus chain analogues” (Beilstein Journal of Organic Chemistry, 2013)
Converted amounts (≈) assume the structure as drawn.

Assays:
[1] = tested on: HCT-116 human colon carcinoma cells; test: Cytotoxicity, growth inhibition (MTT); type: cell-based; settings: Homo sapiens, HCT-116, 120 h, read-out: IC50: half inhibitory concentration, HCT-116
Experimental: The cytotoxic activity of aurachin D (4) and analogues 9–11 and 17–19 was evaluated in growth inhibition experiments on mammalian cell lines (Table 2). After 5 days treatment, half inhibitory concentrations (IC50) were determined for human HCT-116 colon carcinoma and human K562 myelogenous leukemia cells. […]
was further incubated for 1.5 h. The medium was then discarded and 100 µL 2-propanol/10 N HCl (250:1) was added in order to dissolve formazan granules. The absorbance at 570 nm was measured using a microplate reader (EL808, Bio-Tek Instruments Inc.) and cell viability was expressed as a percentage relative to the respective solvent control. […]

[2] = tested on: mitochondrial membrane potential in U-2 OS osteosarcoma cells; test: MMP assay (high-content screening, TMRM); type: cell-based, human; settings: 16 h; for reduction of the MMP: at concentrations as low as 5 µg/mL; for mitochondrial membrane potential (MMP), % of the control value: highest assay concentration (10 µg/mL), TMRM; for effect on MMP in the tested concentration range: 1 to 10 µg/mL
Experimental: Since aurachins are described as electron-transport inhibitors of the mitochondrial respiratory chain (complex I and III), we analyzed the synthetic analogues in high-content screening experiments with respect to a decrease of the mitochondrial membrane potential (MMP). Human U-2 OS osteosarcoma cells were treated for 16 hours with aurachins 4, 9–11, and 17–19 at concentrations between 1 and 10 µg/mL, and mitochondria were labeled with tetramethylrhodamine methyl ester (TMRM) in order to assess changes in MMP (Figure 2). Most prominent concentration-dependent effects were determined for aurachin D (4) and one of its analogues (17). […] This might be due to differential effects on different cell lines, a different time course of electron-transport inhibition, or a different mode of inducing apoptosis (e.g., via enhanced ROS formation). However, at the highest assay concentration also shorter chain analogues 9–11 reduced the MMP to approximately 60–80% of the control value as exemplarily shown for geranyl analogue 9 (Figure 2B).
Figure 2 (A) Loss of mitochondrial membrane potential in human U-2 OS osteosarcoma cells that were treated with aurachin D (4) and analogue 17. Images were acquired on a BD Pathway855 automated microscope and subsequently processed in AttoVision v1.6.2. The relative MMP was calculated based on TMRM fluorescence intensity in the cytoplasmic segments. The value of the negative control (untreated cells) was set to 100% and the value of FCCP-treated cells (positive control) was set to 0%. Bars represent the mean ±SEM of all cellular segments within a well. (B) Representative HCS images of U-2 OS cells that were treated with aurachin D (4) or the geranyl analogue 9. Cells were labeled with TMRM and imaged in the rhodamine channel at 200× magnification. […]
MMP assay: Human U-2 OS osteosarcoma cells (HTB-96) were obtained from the American Type Culture Collection (ATCC) and were cultured under the conditions recommended by the depositor. Cells from actively growing cultures were harvested and seeded at 8 × 10^3 cells per well in 96-well imaging plates (BD Falcon). After 1 d cells reached approximately 60% confluency and were treated with aurachin analogues at the assigned concentrations for 16 h. In addition, cells were stimulated with 1 µM FCCP [carbonyl cyanide 4-(trifluoromethoxy)phenylhydrazone] as a positive control 1 h prior to the measurement. For labeling, cells were washed twice with assay buffer ([…], 5.4 mM KCl, 2 mM MgCl2, 10 mM glucose, 2 mM CaCl2, 10 mM HEPES; pH 7.35) and 100 µL of a staining solution (50 nM TMRM, […]
5 µg/mL Hoechst33342 in assay buffer) was added. The cells were stained for 30 min at 37 °C and after washing with assay buffer the samples were examined on an automated microscope (BD Pathway855) in 200-fold magnification with appropriate filter sets for rhodamine and Hoechst. For image analysis, a dual mask (Cyto-Nuc-Ring) was applied in AttoVision v1.6.2. Presented rhodamine fluorescence intensity values were generated in the cytoplasmic segment (ring around nuclei) on a single cell basis and averaged over the complete sample (well).
In vitro antiplasmodial assays: The chloroquine-resistant strain FcB1/Colombia of Plasmodium falciparum was maintained in vitro on human erythrocytes in RPMI 1640 medium supplemented by 8% (v/v) heat-inactivated human serum, at 37 °C, under an atmosphere of 3% CO2, 6% O2, and 91% N2. In vitro drug susceptibility assays was measured by [3H]-hypoxanthine incorporation as described. Drugs were prepared in DMSO at a 10 mg/mL concentration. Compounds were serially diluted two-fold with 100 µL culture medium in 96-well plates. Asynchronous parasite cultures (100 µL, 1% parasitaemia and 1% final hematocrite) were then added to each well and incubated for 24 h at 37 °C prior to the addition of 0.5 µCi of [3H]- hypoxanthine (GE Healthcare, France, 1 to 5 Ci·mmol/mL) per well. After a further incubation of 24 h, plates were frozen and thawed. […]

[3] = tested on: Trypanosoma brucei gambiense strain Feo bloodstream forms; test: Antitrypanosomal assay (resazurin); type: cell-based; settings: for IC50: Trypanosoma brucei, GAMBIENSE, 72 h incubation, read-out: IC50 T. brucei gambiense
Experimental: page 10: independent experiments. Chloroquine diphosphate (Sigma–Aldrich) was used as antimalarial drug control. Antitrypanosomal activities: Bloodstream forms of Trypanosoma brucei gambiense strain Feo were cultured in HMI9 medium supplemented with 10% FCS at 37 °C under an atmosphere of 5% CO2. Antitrypanosomal assays were performed as previously described. In all experiments, log-phage cell cultures were harvested by centrifugation at 3,000g and immediately used. Drug assays were based on the conversion of a redox-sensitive dye (resazurin) to a fluorescent product by viable cells. Drug stock solutions were prepared in pure DMSO. […] After a 72 h incubation, resazurin solution was added in each well at the final concentration of 45 µM. Fluorescence was measured at 530 nm excitation and 590 nm emission wavelengths after a further 4 h incubation. Each inhibitor concentration was tested in triplicate. The percentage of inhibition of parasite growth rate was calculated by comparing the fluorescence of parasites maintained in the presence of drug to that in the absence of drug. DMSO was used as a control. IC50s were determined from the dose–response curves with drug concentrations ranging from 100 µM to 50 nM. Pentamidine was used as antitrypanosomal drug control. MIC determination: Indicator strains were obtained from the German Collection of Microorganisms and Cell Cultures (Deutsche Sammlung für Mikroorganismen und Zellkulturen, DSMZ) or were part of our internal strain collection. All microorganisms were handled under standard conditions recommended by the depositor. Overnight S10

What does the source list for `CC(C)=CCC/C(C)=C/CC/C(C)=C/Cc1c(C)[nH]c2ccccc2c1=O` [compound 4, aurachin D]?
IC50 [1]: 2.23 ± 0.76 µg/mL (≈ 6.13 µM); reduction of the MMP [2]: significantly reduced the MMP; mitochondrial membrane potential (MMP), % of the control value [2]: approximately 50%; IC50 [3]: 0.4 µg/mL (≈ 1.1 µM); antitrypanosomal selectivity index ([3]; Vero cytotoxic concentration / concentration active on T. brucei gambiense): 35

What does the source list for `CC(C)=CCC/C(C)=C/Cc1c(C)[nH]c2ccccc2c1=O` [compound 9]?
IC50 [1]: 2.52 ± 0.48 µg/mL (≈ 8.53 µM); mitochondrial membrane potential (MMP), % of the control value [2]: 60–80%; IC50 [3]: 1.5 µg/mL (≈ 5.08 µM)

Which IC50 [1] does the source give for `CC(C)=CCCC(C)=CCCC(C)=CCc1c(C)[nH]c2ccc3ccccc3c2c1=O` [compound 17] here?
Its IC50 is greater than 10 µg/mL.

And the “effect on MMP in the tested concentration range” value [2]?
The value was “strongly diminished the MMP”.

What about the “reduction of the MMP” value [2] of the same compound?
The value was “significantly reduced the MMP”.

And the IC50 [3]?
Its IC50 is 0.8 µg/mL (≈ 1.93 µM).

For `COc1ccc2[nH]c(C)c(CC=C(C)CCC=C(C)CCC=C(C)C)c(=O)c2c1` [compound 18], which IC50 [1] is on record?
Its IC50 is 1.64 ± 0.47 µg/mL (≈ 4.17 µM).

And the “effect on MMP in the tested concentration range” value [2]?
Its value is “essentially inactive”.

What about the IC50 [3] of the same compound?
The IC50 was 1.6 µg/mL (≈ 4.07 µM).

What does the source list for `CC(C)=CCCC(C)=CCCC(C)=CCc1c(C)[nH]c2cc3c(cc2c1=O)OCO3` [compound 19]?
IC50 [1]: > 10 µg/mL; effect on MMP in the tested concentration range [2]: essentially inactive; IC50 [3]: > 10 µg/mL
